Assays:
[1] = Reactive oxygen species generation (singlet oxygen sensor green, NBT); assay type: physicochemical
Excerpt: (§1) How might optovin activate TRPA1? When molecules absorb light, photons can excite electrons from their ground state to a […] via intersystem crossing^37. These photoactivated compounds can then undergo reactions by transferring energy or electrons to target molecules, including aqueous molecular oxygen. Optovin is a yellow-colored compound with peak absorbance at 415 nm (FIG. 4A). To determine if optovin is photochemically reactive, it was exposed to increasing intensities of 415 nm light and assayed for reactive oxygen species (ROS) generation.
(§2) Assay for singlet oxygen generation using singlet oxygen sensor green (SOSG) UV-vis absorption spectra were recorded at 20 uM in methanol using an Evolution 300 UV-Vis Spectrophotometer (Thermo Fisher Scientific Inc., Waltham, Mass.). 96-well black-sided plates were used for fluorescent probe experiments. SOSG (Molecular Probes Invitrogen, Eugene, Oreg.) as a 1 mM stock solution in DMF was added to give final concentration of 5 μM SOSG, to optovin and analogues dissolved as 5 μM solutions in 200 μL 50% H2O/CH3CN preloaded in 96-well plates. An Omnilux Clear-U LED light source (Photo Therapeutics Inc), Carlsbad, Calif.) that emits blue light 415-nm+15-nm as a homogeneous spot with an irradiance of 50 mW/cm^2 measured with a power meter (model DMM 199 with 201 standard head; Coherent, Santa Clara, Calif.) that covers an area of one half of a 96-well plate.
Fluorescence spectrophotometry was carried out with SpectraMax M5 plate reader (Molecular Devices, Sunnyvale, Calif.) using excitation and emission at 504 and 525-nm Fluorescence was read after each successive increment of blue light was delivered. As a positive control for a known photosensitizer that absorbs 415-nm light with a quantum yield of singlet oxygen of approximately 0.6 we used a conjugate between polyethylenimine and chlorin(e6) (PEI-ce6)^46.

[2] = UV-Vis absorbance spectrum; assay type: physicochemical
Excerpt: as §1
as §2, with “SOSG (Molecular Probes Invitrogen, Eugene, Oreg.) as a 1 mM stock solution in DMF was added to give final concentration of 5 μM SOSG, to optovin and analogues dissolved as 5 μM solutions in 200 μL 50% H2O/CH3CN preloaded in 96-well plates.” left out

[3] = system: dorsal root ganglia (DRG) sensory neurons; experiment: Calcium imaging of DRG sensory neurons; assay type: cell-based, mouse
Description: To determine if optovin acts on sensory neurons, the activity of treated and untreated dorsal root ganglia (DRG) sensory neurons isolated from wild type mice were compared. […] TRPA1 channels play important roles in detecting chemical, thermal, and mechanical stimuli in a variety of organisms^34,35.
C57Bl/6 male mice (3-4 weeks old) were decapitated and DRG were dissected into 4° C. Hank's Balanced Salt Solution (HBSS; Gibco), then neurons were dissociated using collagenase (1 mg/mL; Worthington) and dispase (5 mg/mL; Gibco) dissolved in HBSS. Neurons were plated in Neurobasal-A medium (Invitrogen), supplemented with B-27 Supplement (Gibco), L-glutamine (Gibco), and penicillin-streptomycin (Gibco). The neurons were plated onto coverslips coated with 0.1 mg/mL poly-D-lysine (Sigma) and 5 μg/mL laminin (Sigma). After 24 h, neurons were washed with assay buffer (HBSS, supplemented with 9 mM HEPES, 11 mM D-glucose, 0.1% fatty-acid free BSA, pH 7.3) and incubated for 1 h with 2 μM Fura2-AM (Invitrogen) with 0.2% pluronic (Invitrogen) in assay buffer in the dark at room temperature. The neurons were then washed with assay buffer and allowed to equilibrate at room temperature for 30 min prior to imaging. After a 120 s baseline perfusion of assay buffer containing 3.3% DMSO, 100 μM optovin dissolved in the DMSO-assay buffer solution, or the DMSO-assay buffer solution alone as a control, was perfused onto the neurons for a period of 1 min. Fura-2 is activated with UV-light, and the process of imaging Fura-2 was enough to activate the optovin. […] Following this one-minute period, cells were perfused with DMSO-assay buffer to remove the agonist, which was followed by addition of 100 μM mustard oil (in DMSO-assay buffer) to determine the total number of TrpA1-expressing neurons present. Images were acquired on a Nikon Eclipse Ti microscope (Nikon, Melville, N.Y.).

[4] = system: larvae and adult zebrafish; experiment: Long-term toxicity testing in zebrafish; assay type: in vivo
Description: Optovin is a rhodanine-containing small molecule with no previously annotated biological activity (FIG. 1D). […] Motor behavior in optovin-treated animals is elicited by radiation stimulus intensitites greater than 1.6 μW/mm^2 (FIG. 1G). […] To determine the long-term effects of optovin exposure on development, behavior and survival, the development, behavior and survival of larvae and adult zebrafish exposed to optovin (10 μM) for 96 hours were analyzed. […] Thus, optovin is a novel behavior-modifying compound that causes rapid and reversible motor excitation in response to violet light stimuli.
To determine the long-term effects of optovin exposure on development, behavior and survival, the development, behavior and survival of larvae (n=150) and adult zebrafish (n=2) exposed to 10 μM optovin for 96 hours was analyzed.

[5] = target: hERG potassium channel (Homo sapiens, UniProt Q12809); experiment: hERG inhibition, FluxOR system; assay type: cell-based; conditions: with or without prior exposure to light
Description: Optovin (PDSP 22594) was tested for hERG inhibition using the FluxOR system with cisapride as a positive control.

[6] = target: T1, human TrpA1 (hTrpA1) (Homo sapiens, UniProt O75762); experiment: Whole-cell patch clamp in transfected HEK293T cells; assay type: cell-based; conditions: 10 μM, following photo-stimulation (405 nm)
T1 construct: expressed in transfected cells; host or cells: HEK293 / HEK293T
Description: To determine if TRPA1 is sufficient for optovin activity, current density amplitudes were analyzed via whole-cell patch clamping in HEK293T cells transfected with the human TrpA1 (hTrpA1) gene.
HEK293 cells were plated upon poly-lysine coated cover slips and transiently transfected with human TRPA1. Voltage clamp recordings were made in the whole-cell configuration 48 hours after transfection using glass electrodes with 2-4M ohm resistance when filled with (in mM) 140 CsCl, 2 Mg2ATP3, 2 MgCl, 5 EGTA, and 10 HEPES (pH adjusted to 7.2 with CsOH) and while bathed at room temperature in extracellular solution containing (in mM) 150 NaCl, 5.4 KCl, 1.8 CaCl2, 1 MgCl, and 5 mM HEPES (pH adjusted to 7.4 with NaOH). A voltage ramp protocol from −80 mV to +80 mV over 400 ms was repeated every 5 seconds during the following conditions: while the cell was dialyzed by the pipette, followed by at least 60 seconds of illumination with 405 nm light, after which optovin (10 μM) containing extracellular solution was perfused into the bath, followed by 1 minute of illumination. Current elicited at holding potentials of +/−70 mV were used to characterize TRPA1 activation.

Chain of hERG potassium channel (Q12809 whole entry): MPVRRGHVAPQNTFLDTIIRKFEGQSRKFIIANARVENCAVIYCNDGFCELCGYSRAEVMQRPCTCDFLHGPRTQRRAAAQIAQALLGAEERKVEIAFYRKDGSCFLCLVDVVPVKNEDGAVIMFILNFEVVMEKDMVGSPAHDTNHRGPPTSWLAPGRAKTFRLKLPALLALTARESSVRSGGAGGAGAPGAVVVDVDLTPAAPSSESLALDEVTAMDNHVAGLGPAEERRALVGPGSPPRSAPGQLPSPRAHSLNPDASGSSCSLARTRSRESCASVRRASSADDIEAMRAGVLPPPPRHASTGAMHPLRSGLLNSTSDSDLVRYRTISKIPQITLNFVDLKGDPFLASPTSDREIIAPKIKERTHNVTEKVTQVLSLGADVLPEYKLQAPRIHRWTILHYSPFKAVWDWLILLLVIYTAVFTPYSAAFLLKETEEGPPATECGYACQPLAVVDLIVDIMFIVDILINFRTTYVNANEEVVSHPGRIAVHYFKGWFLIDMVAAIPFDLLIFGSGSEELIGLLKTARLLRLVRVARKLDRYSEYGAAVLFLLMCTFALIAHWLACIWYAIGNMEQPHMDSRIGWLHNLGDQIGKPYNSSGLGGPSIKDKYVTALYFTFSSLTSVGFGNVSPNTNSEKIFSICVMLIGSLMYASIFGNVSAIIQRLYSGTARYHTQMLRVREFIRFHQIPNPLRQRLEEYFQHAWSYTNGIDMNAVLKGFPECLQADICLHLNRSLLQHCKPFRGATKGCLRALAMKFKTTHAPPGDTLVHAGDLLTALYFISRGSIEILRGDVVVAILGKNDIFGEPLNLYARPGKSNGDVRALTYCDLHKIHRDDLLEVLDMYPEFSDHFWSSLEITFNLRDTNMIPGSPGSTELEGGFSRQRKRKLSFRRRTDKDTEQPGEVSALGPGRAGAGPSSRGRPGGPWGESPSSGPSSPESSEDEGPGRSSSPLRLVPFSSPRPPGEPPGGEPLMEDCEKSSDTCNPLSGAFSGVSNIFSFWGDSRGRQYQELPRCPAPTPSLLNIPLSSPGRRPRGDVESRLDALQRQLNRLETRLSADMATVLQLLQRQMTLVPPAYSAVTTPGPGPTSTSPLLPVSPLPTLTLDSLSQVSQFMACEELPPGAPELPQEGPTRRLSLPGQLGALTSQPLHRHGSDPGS
T1 sequence (O75762 whole entry): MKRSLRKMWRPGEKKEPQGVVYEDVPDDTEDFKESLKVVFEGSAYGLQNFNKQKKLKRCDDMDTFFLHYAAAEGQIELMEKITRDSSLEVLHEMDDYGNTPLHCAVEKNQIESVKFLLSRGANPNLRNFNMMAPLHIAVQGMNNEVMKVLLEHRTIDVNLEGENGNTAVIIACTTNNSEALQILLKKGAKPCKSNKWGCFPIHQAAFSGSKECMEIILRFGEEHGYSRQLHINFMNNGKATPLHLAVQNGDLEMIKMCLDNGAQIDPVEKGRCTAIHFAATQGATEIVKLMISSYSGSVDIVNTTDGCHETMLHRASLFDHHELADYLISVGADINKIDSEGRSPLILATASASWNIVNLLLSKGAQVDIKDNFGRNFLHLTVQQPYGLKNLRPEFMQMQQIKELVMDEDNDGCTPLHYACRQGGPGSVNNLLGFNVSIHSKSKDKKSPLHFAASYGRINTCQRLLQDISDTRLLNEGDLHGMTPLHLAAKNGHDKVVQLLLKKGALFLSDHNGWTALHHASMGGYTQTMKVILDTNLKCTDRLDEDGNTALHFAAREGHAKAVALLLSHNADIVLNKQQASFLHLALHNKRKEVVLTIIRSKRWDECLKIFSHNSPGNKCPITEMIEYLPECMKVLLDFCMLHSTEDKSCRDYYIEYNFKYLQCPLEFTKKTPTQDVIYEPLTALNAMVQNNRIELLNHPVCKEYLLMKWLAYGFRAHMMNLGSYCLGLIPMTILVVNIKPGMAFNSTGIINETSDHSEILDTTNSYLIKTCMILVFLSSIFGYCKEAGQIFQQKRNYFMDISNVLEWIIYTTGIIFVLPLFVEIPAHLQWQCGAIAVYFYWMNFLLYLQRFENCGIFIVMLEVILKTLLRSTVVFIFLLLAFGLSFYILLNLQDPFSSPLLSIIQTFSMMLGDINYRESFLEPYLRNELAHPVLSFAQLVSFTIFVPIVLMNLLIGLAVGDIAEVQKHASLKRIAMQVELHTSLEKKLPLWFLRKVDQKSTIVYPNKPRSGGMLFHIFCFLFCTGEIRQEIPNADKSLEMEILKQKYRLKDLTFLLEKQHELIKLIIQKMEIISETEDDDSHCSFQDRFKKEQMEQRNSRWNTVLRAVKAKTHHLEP

Cc1cc(/C=C2/SC(=S)NC2=O)c(C)n1-c1cccnc1 [optovin]
hydroxyl radical and superoxide generation ([1]; 415 nm light): neither hydroxyl radicals nor superoxide | singlet oxygen generation ([1]; 415 nm light): generates singlet oxygen | singlet oxygen quantum yield ([1]; estimated by comparison with PEI-ce6): about 0.04 | peak absorbance [2]: 415 nm | activation of DRG neurons with light ([3]; 100 μM optovin, illuminated (Fura-2 imaging)): strongly activated | activation of DRG neurons in the dark ([3]; optovin treatment in the dark): did not occur | differences in appearance, touch response, heart rate, fin movements, morphology or percentage survival vs untreated ([4]; 10 μM for 96 hours, larvae and adult zebrafish): No differences were identified | survival rates ([4]; 10 μM, larval or adult zebrafish): does not affect survival rates | signs of toxicity ([4]; after 48 hours of treatment): No signs of toxicity were observed | effect on hERG activity [5]: no effect on hERG activity | current density amplitudes in response to positive voltage steps [6]: significantly increased
